Patent US20250034216A1, “STEREOSELECTIVE COVALENT LIGANDS FOR ONCOGENIC AND IMMUNOLOGICAL PROTEINS” (The Scripps Research Institute, priority 2021, published 2025)

Tests used:
Test in all cases: IA-DTB cysteine engagement
Format in all cases: binding
Conditions in all cases: 22Rv1 cells, 20 μM probe, 1 h, relative to DMSO
XXYLT1_C10 = target: T1, XXYLT1_C10 (Homo sapiens, UniProt Q8NBI6)
T1 construct: endogenous in cells; host or cells: 22Rv1
T1 sequence (Q8NBI6 1-393): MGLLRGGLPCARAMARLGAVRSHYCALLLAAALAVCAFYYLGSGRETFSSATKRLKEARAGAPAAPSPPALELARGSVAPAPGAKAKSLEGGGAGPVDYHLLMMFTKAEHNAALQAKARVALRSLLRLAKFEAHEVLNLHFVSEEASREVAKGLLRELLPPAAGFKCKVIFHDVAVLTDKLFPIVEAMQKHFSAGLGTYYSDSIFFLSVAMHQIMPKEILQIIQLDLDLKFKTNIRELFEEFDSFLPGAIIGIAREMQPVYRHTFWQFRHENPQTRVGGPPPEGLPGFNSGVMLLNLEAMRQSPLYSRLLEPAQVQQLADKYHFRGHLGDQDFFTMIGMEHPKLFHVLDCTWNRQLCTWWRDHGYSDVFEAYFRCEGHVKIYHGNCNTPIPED
How it was run: (§1)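 In-situ probe treatment of cells; lysate 2 mg/mL, IA-DTB 1 h RT; MeOH/CHCl3 precipitation, DTT/iodoacetamide, trypsin; streptavidin enrichment; TMT labeling, high-pH fractionation. Ratio = TMT reporter intensity / mean DMSO channels, median-normalized.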

ZNF346_C68 = target: T2, ZNF346_C68 (Homo sapiens, UniProt Q9UL40)
T2 construct: endogenous in cells; host or cells: 22Rv1
T2 sequence (Q9UL40 1-294): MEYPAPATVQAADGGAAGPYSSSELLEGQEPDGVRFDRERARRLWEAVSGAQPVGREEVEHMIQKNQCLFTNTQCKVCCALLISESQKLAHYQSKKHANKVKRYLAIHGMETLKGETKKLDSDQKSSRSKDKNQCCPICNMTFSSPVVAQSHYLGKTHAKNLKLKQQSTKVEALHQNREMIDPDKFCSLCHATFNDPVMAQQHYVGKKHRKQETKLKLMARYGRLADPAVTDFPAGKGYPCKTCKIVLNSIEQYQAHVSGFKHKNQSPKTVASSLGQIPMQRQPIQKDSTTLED
How it was run: as §1

TANC1_C800 = target: T3, TANC1_C800 (Homo sapiens, UniProt Q9C0D5)
T3 construct: endogenous in cells; host or cells: 22Rv1
How it was run: as §1

T3 sequence (Q9C0D5 whole entry): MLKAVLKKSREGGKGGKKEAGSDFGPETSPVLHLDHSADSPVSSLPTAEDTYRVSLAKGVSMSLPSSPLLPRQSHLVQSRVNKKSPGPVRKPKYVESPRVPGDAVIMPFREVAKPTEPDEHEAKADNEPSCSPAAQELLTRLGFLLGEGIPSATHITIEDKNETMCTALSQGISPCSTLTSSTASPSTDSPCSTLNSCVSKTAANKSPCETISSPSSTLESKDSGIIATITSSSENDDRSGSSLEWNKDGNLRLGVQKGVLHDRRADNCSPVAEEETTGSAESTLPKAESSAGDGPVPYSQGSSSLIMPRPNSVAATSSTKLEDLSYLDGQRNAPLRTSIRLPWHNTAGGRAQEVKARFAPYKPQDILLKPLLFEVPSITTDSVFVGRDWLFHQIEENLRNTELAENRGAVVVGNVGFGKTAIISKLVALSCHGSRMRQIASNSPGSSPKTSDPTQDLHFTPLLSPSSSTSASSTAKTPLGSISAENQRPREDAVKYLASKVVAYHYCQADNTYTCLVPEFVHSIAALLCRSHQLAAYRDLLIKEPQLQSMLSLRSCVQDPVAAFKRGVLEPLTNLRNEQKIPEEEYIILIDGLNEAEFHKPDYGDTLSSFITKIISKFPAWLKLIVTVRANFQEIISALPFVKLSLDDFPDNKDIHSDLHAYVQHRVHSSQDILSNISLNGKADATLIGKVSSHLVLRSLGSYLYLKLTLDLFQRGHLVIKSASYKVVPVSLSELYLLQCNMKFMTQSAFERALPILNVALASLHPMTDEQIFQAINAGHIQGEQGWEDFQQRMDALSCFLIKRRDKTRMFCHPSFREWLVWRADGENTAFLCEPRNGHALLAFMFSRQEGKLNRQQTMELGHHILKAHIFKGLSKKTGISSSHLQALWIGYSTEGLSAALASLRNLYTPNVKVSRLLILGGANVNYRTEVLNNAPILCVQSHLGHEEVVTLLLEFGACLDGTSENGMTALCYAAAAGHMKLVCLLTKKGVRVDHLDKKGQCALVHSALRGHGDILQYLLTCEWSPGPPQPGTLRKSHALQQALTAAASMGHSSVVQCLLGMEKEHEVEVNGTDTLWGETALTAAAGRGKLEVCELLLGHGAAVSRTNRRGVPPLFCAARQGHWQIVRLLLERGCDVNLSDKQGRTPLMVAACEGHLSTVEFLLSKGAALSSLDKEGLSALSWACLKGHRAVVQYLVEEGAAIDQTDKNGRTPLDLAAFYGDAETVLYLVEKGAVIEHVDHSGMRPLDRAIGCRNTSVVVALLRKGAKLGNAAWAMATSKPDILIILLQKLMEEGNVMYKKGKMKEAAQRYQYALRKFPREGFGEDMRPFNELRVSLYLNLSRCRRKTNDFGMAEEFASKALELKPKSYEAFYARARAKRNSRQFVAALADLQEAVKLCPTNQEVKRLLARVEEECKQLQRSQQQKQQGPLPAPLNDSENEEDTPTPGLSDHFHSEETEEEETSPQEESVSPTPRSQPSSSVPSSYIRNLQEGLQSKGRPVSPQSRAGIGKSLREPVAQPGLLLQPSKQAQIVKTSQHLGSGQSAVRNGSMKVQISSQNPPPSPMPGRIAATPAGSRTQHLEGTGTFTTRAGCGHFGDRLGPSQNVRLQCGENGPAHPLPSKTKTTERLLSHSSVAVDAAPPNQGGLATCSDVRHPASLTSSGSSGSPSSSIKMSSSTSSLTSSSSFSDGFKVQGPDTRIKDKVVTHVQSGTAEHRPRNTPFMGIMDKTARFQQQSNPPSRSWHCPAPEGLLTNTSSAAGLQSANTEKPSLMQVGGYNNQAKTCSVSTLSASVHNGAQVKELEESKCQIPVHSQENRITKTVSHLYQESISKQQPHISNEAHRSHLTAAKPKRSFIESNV

SMILES | % engagement XXYLT1_C10 (XXYLT1_C10) [%] | % engagement ZNF346_C68 (ZNF346_C68) [%] | % engagement TANC1_C800 (TANC1_C800) [%]
C=CC(=O)N1C[C@@H](c2ccc(Br)cc2)[C@H]1C(=O)Nc1cccc2cccnc12 [MY-1A, (2S,3R)-1-acryloyl-3-(4-bromophenyl)-N-(quinolin-8-yl)azetidine-2-carboxamide] | 76.5 | 95.5 | −2
C=CC(=O)N1C[C@H](c2ccc(Br)cc2)[C@@H]1C(=O)Nc1cccc2cccnc12 [MY-1B, (2R,3S)-1-acryloyl-3-(4-bromophenyl)-N-(quinolin-8-yl)azetidine-2-carboxamide] | 77 | 37 | 3
C=CC(=O)N1C[C@H](c2ccc(Br)cc2)[C@H]1C(=O)Nc1cccc2cccnc12 [MY-3A, (2S,3S)-1-acryloyl-3-(4-bromophenyl)-N-(quinolin-8-yl)azetidine-2-carboxamide] | 67 | 14 | 12.5
C=CC(=O)N1C[C@H](c2ccc(Br)cc2)[C@H]1C(=O)Nc1cccc2cccnc12 [MY-3B, (2S,3S)-1-acryloyl-3-(4-bromophenyl)-N-(quinolin-8-yl)azetidine-2-carboxamide] | 93 | 45.25 | 83.5
